This data set can be described thus: Aqueous solubility in Ringer's buffer at pH 7.5 (HPLC). Conditions: at pH 7.5 in Ringer's buffer. It is filed as physicochemical. The protocol:
A known excess weight of the compound was shaken overnight with a known volume of Ringer's buffer (bicarbonate buffer containing sodium, potassium, calcium and magnesium ions, initially adjusted to pH 7.5). The contents were filtered, and the clear filtrate was analyzed after appropriate dilution using HPLC (UV absorbance detection).

Each structure is given as a SMILES string. In brackets after ≈: the same amount, converted by molar mass.

The solubility is the concentration that dissolves in the medium under given conditions. In the case of `CC1CC(N)CN1c1nc2c(cc1F)c(=O)c(C(=O)O)cn2-c1ccc(F)cc1F` (centres unmarked) [Epimer of Example 2], the solubility stood at 340 µg/mL (≈ 813 µM). Take `CC1CC(N)CN1c1cc2c(cc1F)c(=O)c(C(=O)O)cn2-c1ccc(F)cc1F` (centres unmarked) [Epimer of Example 6]: the concentration in solution (solubility) came to 182 µg/mL (≈ 436 µM). This solubility lies about 1.9-fold lower than the previous one.

(Values after patent US4962112A, “7-(2-methyl-4-aminopyrrolidinyl)naphthryidine and quinoline compounds” (Abbott Laboratories, priority 1988, dated 1990).)
